Laboratory results: paper PMC8355706, “CK-3, A Novel Methsulfonyl Pyridine Derivative, Suppresses Hepatocellular Carcinoma Proliferation and Invasion by Blocking the PI3K/AKT/mTOR and MAPK/ERK Pathways” (Frontiers in Oncology, 2021)

Assays:
Format in all cases: biochemical
ERK = biological target: T1, ERK; test: kinase activity profile; ERK assay not described
T1 construct: gene MAPK1; enzyme source and assay not described; ERK2 used only for docking
Source text: kinase activity profile; ERK assay not described on ERK

PI3Kβ = biological target: T2, PI3Kβ (Homo sapiens, UniProt P42338); test: PI3K-Glo ADP detection kinase assay
T2 construct: gene PIK3CB; with Phosphatidylinositol 3-kinase regulatory subunit alpha
Source text: PI3K-Glo ADP detection kinase assay on PI3Kβ

PI3Kδ = biological target: T3, PI3Kδ (Homo sapiens, UniProt O00329); test: PI3K-Glo ADP detection kinase assay
T3 construct: gene PIK3CD; with Phosphatidylinositol 3-kinase regulatory subunit alpha
Source text: PI3K-Glo ADP detection kinase assay on PI3Kδ

PI3Kγ = biological target: T4, PI3Kγ (Homo sapiens, UniProt P48736); test: PI3K-Glo ADP detection kinase assay
T4 construct: gene PIK3CG
Source text: PI3K-Glo ADP detection kinase assay on PI3Kγ

PI3Kα = biological target: T5, PI3Kα (Homo sapiens, UniProt P42336); test: PI3K-Glo ADP detection kinase assay
T5 construct: gene PIK3CA; with Phosphatidylinositol 3-kinase regulatory subunit alpha
Source text: PI3K-Glo ADP detection kinase assay on PI3Kα

T5 sequence (P42336 whole entry): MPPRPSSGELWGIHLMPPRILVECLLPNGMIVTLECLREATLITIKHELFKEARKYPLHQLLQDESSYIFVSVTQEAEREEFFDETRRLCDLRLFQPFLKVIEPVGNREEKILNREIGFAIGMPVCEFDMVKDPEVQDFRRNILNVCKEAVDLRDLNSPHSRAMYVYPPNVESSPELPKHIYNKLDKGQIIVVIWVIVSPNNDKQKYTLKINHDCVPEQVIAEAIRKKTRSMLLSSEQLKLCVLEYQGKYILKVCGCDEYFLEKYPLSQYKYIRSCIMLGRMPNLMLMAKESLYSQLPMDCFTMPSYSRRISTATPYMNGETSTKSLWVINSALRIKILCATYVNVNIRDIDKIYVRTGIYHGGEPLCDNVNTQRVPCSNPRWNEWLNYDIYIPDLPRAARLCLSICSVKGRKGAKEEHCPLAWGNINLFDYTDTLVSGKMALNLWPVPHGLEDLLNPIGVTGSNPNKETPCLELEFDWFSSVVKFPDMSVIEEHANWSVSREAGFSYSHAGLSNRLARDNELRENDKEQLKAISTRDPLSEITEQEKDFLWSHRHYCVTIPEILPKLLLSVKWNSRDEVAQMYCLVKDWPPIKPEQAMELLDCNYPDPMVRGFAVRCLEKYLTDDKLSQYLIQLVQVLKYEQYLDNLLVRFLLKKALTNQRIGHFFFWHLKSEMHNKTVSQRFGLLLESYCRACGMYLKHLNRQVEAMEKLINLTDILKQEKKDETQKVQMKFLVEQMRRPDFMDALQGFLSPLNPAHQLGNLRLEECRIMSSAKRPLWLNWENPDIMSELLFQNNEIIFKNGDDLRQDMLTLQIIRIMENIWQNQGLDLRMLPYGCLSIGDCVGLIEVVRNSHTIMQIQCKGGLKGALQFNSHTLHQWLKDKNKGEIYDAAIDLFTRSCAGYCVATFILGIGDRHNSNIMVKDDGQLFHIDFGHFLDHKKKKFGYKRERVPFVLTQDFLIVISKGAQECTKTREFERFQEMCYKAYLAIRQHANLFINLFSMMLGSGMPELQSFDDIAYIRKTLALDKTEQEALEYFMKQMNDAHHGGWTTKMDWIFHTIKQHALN
T5 sequence (P27986 2-724 partner): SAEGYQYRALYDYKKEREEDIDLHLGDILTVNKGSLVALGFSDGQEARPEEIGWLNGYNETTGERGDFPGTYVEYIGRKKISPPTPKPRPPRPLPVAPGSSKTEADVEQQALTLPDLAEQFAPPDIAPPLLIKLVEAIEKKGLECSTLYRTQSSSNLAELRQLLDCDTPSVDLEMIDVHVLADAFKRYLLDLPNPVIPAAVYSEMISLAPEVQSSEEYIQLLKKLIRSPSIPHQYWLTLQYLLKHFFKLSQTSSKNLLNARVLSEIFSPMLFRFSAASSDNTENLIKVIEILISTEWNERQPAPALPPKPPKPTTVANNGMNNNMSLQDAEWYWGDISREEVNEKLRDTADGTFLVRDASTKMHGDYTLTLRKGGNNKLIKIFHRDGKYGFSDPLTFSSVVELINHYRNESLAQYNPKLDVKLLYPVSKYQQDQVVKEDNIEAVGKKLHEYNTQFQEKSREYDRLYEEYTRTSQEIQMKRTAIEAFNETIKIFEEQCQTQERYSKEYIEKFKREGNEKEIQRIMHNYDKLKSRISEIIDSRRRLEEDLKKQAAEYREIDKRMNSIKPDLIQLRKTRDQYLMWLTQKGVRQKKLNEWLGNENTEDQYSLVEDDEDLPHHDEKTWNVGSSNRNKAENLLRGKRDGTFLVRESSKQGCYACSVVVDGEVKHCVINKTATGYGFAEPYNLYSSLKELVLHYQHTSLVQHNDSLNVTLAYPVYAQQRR
T2 sequence (P42338 whole entry): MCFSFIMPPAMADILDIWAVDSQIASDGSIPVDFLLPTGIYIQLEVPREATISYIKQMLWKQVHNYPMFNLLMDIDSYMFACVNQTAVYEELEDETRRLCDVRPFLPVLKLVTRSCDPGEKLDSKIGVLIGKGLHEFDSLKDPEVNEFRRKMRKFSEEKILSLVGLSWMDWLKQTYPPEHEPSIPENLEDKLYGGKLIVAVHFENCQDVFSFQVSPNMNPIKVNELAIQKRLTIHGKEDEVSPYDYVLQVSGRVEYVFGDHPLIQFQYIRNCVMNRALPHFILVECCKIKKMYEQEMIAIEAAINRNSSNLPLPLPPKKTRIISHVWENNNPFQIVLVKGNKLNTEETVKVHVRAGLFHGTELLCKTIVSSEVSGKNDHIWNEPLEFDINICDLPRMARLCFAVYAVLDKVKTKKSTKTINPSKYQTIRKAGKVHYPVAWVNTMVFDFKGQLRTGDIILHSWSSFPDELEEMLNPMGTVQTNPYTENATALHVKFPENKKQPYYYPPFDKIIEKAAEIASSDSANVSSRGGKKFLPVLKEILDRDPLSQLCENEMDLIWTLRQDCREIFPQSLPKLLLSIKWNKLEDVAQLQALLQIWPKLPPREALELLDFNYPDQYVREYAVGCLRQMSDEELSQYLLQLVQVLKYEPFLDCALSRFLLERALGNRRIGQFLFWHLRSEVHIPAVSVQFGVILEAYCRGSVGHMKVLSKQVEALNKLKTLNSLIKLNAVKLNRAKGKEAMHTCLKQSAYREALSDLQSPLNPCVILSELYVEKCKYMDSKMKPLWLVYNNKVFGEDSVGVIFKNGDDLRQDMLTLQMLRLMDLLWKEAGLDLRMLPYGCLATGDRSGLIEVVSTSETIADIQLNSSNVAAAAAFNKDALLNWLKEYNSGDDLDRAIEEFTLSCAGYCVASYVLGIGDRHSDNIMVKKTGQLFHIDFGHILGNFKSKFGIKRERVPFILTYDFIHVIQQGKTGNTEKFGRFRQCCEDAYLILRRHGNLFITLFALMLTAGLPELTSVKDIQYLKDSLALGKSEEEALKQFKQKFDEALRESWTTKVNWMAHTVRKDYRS
T2 sequence (P27986 2-724 partner): as the sequence (P27986 2-724 partner) above
T4 sequence (P48736 whole entry): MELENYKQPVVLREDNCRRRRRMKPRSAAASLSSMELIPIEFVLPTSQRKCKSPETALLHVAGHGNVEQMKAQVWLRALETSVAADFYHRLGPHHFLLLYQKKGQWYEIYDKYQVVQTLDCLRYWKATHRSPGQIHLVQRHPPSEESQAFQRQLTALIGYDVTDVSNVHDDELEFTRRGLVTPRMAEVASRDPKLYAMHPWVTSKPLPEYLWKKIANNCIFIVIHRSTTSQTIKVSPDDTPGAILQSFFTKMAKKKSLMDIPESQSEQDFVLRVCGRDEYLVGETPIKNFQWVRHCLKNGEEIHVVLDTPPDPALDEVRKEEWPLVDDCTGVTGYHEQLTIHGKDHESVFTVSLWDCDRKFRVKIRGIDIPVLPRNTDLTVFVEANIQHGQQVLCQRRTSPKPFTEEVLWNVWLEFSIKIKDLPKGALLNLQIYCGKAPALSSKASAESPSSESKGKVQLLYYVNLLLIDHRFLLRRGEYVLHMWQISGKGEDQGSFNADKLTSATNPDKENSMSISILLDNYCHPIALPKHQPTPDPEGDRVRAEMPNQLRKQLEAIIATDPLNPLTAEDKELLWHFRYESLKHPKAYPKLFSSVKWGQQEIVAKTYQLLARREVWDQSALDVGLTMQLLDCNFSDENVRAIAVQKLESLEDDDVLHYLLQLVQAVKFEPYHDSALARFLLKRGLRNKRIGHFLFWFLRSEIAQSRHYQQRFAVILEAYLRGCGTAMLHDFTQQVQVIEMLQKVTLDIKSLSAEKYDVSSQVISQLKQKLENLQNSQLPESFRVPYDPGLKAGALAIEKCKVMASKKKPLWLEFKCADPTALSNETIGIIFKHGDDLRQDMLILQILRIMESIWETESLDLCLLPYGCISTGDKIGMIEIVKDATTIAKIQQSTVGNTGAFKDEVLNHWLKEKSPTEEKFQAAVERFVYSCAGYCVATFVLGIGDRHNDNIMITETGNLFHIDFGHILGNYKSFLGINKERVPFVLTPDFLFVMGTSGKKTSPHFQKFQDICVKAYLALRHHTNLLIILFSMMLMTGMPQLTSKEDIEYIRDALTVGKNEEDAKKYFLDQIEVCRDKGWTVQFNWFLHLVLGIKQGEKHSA
T3 sequence (O00329 whole entry): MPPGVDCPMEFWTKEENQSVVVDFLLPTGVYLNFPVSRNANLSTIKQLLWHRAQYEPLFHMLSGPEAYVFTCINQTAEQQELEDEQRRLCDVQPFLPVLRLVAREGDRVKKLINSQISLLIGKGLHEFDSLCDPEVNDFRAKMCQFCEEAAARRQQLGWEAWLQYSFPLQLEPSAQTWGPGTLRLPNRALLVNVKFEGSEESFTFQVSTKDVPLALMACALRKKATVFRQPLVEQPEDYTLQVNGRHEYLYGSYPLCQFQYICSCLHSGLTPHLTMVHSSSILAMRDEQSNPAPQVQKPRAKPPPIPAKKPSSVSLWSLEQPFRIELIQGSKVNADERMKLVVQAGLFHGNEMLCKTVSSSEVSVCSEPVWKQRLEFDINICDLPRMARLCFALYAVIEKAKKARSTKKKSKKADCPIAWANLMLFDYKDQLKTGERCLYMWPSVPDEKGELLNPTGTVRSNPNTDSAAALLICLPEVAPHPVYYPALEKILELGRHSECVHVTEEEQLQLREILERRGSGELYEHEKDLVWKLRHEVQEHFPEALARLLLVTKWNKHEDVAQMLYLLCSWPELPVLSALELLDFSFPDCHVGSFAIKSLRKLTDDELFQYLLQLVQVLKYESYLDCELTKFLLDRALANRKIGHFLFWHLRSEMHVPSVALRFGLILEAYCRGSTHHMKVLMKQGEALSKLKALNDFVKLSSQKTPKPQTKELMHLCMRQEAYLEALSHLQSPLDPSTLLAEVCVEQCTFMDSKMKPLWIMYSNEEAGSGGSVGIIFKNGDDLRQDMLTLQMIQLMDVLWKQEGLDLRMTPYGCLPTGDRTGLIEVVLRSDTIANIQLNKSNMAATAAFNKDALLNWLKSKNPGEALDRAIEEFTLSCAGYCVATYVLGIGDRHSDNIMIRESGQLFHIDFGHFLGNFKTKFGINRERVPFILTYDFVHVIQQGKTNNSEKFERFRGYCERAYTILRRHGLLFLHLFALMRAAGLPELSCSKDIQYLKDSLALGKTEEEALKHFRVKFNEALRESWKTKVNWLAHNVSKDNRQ
T3 sequence (P27986 2-724 partner): as the sequence (P27986 2-724 partner) above

- IC50 (ERK): 5.67 µM
- IC50 (PI3Kβ): > 10 µM
- IC50 (PI3Kδ): 4.67 µM
- IC50 (PI3Kγ): > 10 µM
- IC50 (PI3Kα): 6.71 µM
SMILES: COc1ncc(-c2ccc(NC(=O)/C=C/c3cccnc3)c(-n3ccnc3)c2)cc1NS(C)(=O)=O [CK-3]
